Assay results from patent US7817840B2, “Predicting hepatotoxicity using cell based assays” (Cytokinetics, Inc., priority 2003, dated 2010).

Assays:
bile flow = conditions: rats; cited from earlier work
[1] = system: human hepatoma cell line HepG2; conditions: HepG2 cells incubated with compound; previous studies; cited from earlier work
Primary rat hepatocytes = assay: MTS/PMS cell viability (hepatotoxicity) assay, 24-hour exposure; type: cell-based; conditions: Hepatocyte, 9-point dilution series, read-out: IC50 (cell viability, formazan absorbance as percent of untreated control)
Experimental: To measure the viability of hepatocytes after plating, an aqueous CellTiter Non-radioactive Cell Proliferation Assay may be used (Promega, Madison, Wis.). This assay can also be used to measure the hepatoxicity of a test compound.
In one example of the assay, hepatoxicity is determined by assaying rat hepatocytes for viability following a 24-hour exposure to a 9-point dilution series of compound (to allow assessment of dose). Cell viability is determined by measuring the absorbance of formazon, a product formed by the bioreduction of MTS/PMS, commercially available reagents. […]
With reference to FIG. 6, in a sterile 2 mL v-bottom assay block, dispense 2.5 μl of compound at 400× highest desired concentration to wells in column 3, rows B through G. (six different compounds per block, one for each row, edge wells are not used due to evaporation). […] Next, add 250 μL of media containing 0.2% Triton X-100 to column 2, rows E, F, and G. ODs (optical density or absorbance) from this well will be used to subtract out for background absorbance of dead cells and vehicle. […]
Day 3—MTS Addition and OD Reading
A. After 24 hours of incubation with drug, remove plates from incubator and add 40 μl MTS/PMS to each well. […] Read ODs at 490 nm after a 5 second shaking cycle in a ninety-six well spectrophotometer. […]

Row | Compound | Nile Red binding (lipid accumulation) [1] | further results
1 | C=C1[C@@H](C)[C@H]2[C@H](Cc3ccccc3)NC(=O)[C@]23OC(=O)/C=C/[C@H](O)CCC[C@@H](C)C/C=C/[C@H]3[C@@H]1O [cytochalasin B] |  | effect on bile flow (bile flow): prompt arrest of bile flow
2 | estrogen | increased Nile Red binding | 
3 | O=c1ccc2ccccc2o1 [Coumarin] |  | IC50 (Primary rat hepatocytes): ~53 µM
4 | CCCC(CCC)C(=O)O [valproic acid] | increased Nile Red binding | 
5 | CCSCC[C@H](N)C(=O)O [ethionine] | increased Nile Red binding | 
